Test [1] addresses T1, CaV2.2 (Homo sapiens, UniProt Q00975). The test is described as follows: cell-based.
Test [2] concerns the target T1, CaV2.2.

T1 sequence (Q00975 whole entry, looked up): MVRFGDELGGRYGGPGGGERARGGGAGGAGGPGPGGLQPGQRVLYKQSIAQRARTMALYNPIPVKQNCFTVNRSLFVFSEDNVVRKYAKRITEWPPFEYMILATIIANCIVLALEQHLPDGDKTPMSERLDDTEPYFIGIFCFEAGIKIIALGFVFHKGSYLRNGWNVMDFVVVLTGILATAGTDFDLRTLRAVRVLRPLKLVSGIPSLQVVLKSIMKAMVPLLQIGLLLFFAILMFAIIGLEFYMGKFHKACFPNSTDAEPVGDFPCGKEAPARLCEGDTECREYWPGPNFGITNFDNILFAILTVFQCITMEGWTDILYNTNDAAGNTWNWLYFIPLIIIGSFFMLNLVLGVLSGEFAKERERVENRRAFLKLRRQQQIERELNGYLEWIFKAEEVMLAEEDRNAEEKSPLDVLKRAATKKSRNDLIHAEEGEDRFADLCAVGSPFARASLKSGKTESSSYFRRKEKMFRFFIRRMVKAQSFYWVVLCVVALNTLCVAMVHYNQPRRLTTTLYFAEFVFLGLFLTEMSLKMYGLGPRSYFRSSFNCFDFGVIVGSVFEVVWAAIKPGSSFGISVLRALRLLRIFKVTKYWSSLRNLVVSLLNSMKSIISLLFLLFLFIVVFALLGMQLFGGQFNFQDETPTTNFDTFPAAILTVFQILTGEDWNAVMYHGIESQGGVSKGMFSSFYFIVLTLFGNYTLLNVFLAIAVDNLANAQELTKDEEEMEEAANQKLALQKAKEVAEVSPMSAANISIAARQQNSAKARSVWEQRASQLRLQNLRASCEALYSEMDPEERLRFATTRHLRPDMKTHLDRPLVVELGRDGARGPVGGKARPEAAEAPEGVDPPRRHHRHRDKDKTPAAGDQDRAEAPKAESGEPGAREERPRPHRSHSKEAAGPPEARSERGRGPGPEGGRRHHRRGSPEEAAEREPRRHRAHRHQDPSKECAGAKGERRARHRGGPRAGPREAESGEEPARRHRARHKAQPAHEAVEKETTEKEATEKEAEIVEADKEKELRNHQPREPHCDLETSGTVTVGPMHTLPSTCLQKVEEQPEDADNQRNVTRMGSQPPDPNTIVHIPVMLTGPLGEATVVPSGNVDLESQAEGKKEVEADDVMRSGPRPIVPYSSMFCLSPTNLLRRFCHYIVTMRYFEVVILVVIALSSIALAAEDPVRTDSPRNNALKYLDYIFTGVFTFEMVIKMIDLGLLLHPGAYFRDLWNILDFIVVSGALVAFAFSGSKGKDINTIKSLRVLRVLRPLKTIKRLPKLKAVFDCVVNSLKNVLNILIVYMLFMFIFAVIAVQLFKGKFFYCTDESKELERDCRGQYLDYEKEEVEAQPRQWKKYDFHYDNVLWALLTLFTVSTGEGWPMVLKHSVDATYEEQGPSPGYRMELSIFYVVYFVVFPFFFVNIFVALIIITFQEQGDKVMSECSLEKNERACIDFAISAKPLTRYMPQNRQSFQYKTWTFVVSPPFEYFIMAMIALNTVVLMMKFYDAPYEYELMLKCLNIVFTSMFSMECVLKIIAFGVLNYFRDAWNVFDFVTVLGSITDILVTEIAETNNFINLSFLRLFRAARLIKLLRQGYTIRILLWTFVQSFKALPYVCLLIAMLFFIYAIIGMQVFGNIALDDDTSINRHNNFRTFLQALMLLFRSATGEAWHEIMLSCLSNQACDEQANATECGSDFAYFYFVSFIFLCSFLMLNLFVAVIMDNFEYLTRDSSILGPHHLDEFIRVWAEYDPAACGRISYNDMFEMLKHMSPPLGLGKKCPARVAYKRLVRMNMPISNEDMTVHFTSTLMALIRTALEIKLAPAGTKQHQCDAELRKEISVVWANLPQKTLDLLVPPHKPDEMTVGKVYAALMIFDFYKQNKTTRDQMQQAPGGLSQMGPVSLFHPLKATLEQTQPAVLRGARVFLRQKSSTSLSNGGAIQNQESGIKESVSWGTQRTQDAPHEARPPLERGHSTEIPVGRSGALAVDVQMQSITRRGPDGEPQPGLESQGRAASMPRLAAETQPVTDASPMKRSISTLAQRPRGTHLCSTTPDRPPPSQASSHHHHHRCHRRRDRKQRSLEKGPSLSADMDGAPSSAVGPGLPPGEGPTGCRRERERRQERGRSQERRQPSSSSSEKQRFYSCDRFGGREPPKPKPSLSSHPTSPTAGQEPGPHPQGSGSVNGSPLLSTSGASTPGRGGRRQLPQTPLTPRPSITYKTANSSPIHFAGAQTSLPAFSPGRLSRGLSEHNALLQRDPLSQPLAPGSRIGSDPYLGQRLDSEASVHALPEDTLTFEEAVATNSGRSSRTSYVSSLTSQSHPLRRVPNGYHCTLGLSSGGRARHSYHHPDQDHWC

At CaV2.2 [1], `CCCC[C@@H]1NC(=O)[C@H](CC(C)C)NC(=O)[C@H](CCCNC(=N)N)NC(=O)[C@H](CO)NC(=O)[C@@H]2CSSC[C@@H]3NC(=O)[C@H](CO)NC(=O)CNC(=O)[C@H]([C@@H](C)O)NC(=O)[C@H](CSSC[C@H](NC(=O)[C@H](C)NC(=O)CNC(=O)CN)C(=O)N[C@@H](CCCCN)C(=O)NCC(=O)N[C@@H](CCCCN)C(=O)NCC(=O)N[C@@H](C)C(=O)N[C@@H](CCCCN)C(=O)N2)NC(=O)[C@H](CSSC[C@@H](C(=O)N[C@@H](C)C(=O)NCC(=O)N[C@@H](CC(N)=O)C(=O)NCC(=O)N[C@@H](CC(C)C)C(=O)O)NC(=O)[C@H](CCCCN)NC(=O)CNC(=O)[C@H](CO)NC(=O)[C@H](CCCNC(=N)N)NC3=O)NC(=O)[C@H](CC(=O)O)NC(=O)[C@H](Cc2ccc(O)cc2)NC1=O` [M-6] displayed a concentration for a half-maximal effect (EC50) of 67.8 nM. Also, the LogEC50 at CaV2.2 [2] is given as -7.2.

Take `CCCC[C@@H]1NC(=O)[C@H](CC(C)C)NC(=O)[C@H](CCCNC(=N)N)NC(=O)[C@H](CO)NC(=O)[C@@H]2CSSC[C@@H]3NC(=O)[C@H](CO)NC(=O)CNC(=O)[C@H]([C@@H](C)O)NC(=O)[C@H](CSSC[C@H](NC(=O)[C@H](C)NC(=O)[C@H](C)NC(=O)CNC(=O)CN)C(=O)N[C@@H](CCCCN)C(=O)NCC(=O)N[C@@H](CCCCN)C(=O)NCC(=O)N[C@@H](C)C(=O)N[C@@H](CCCCN)C(=O)N2)NC(=O)[C@H](CSSC[C@@H](C(=O)N[C@@H](C)C(=O)NCC(=O)N[C@@H](CC(N)=O)C(=O)NCC(=O)N[C@@H](CC(C)C)C(=O)O)NC(=O)[C@H](CCCCN)NC(=O)CNC(=O)[C@H](CO)NC(=O)[C@H](CCCNC(=N)N)NC3=O)NC(=O)[C@H](CC(=O)O)NC(=O)[C@H](Cc2ccc(O)cc2)NC1=O` [M-7]: a half-maximal response at CaV2.2 [1] (EC50) required 55.5 nM. The LogEC50 at CaV2.2 [2] is -7.3.

For `CCCC[C@@H]1NC(=O)[C@H](CC(C)C)NC(=O)[C@H](CCCNC(=N)N)NC(=O)[C@H](CO)NC(=O)[C@@H]2CSSC[C@@H]3NC(=O)[C@H](CO)NC(=O)CNC(=O)[C@H]([C@@H](C)O)NC(=O)[C@H](CSSC[C@H](NC(=O)[C@H](C)NC(=O)[C@H](C)NC(=O)CNC(=O)CN)C(=O)N[C@@H](CCCCN)C(=O)NCC(=O)N[C@@H](CCCCN)C(=O)NCC(=O)N[C@@H](C)C(=O)N[C@@H](CCCCN)C(=O)N2)NC(=O)[C@H](CSSC[C@@H](C(=O)N[C@@H](C)C(=O)NCC(=O)NCC(=O)N[C@@H](CC(N)=O)C(=O)NCC(=O)N[C@@H](CC(C)C)C(=O)O)NC(=O)[C@H](CCCCN)NC(=O)CNC(=O)[C@H](CO)NC(=O)[C@H](CCCNC(=N)N)NC3=O)NC(=O)[C@H](CC(=O)O)NC(=O)[C@H](Cc2ccc(O)cc2)NC1=O` [M-8], the 50% effective concentration (EC50) on CaV2.2 [1] was 78.7 nM. In addition, the LogEC50 at CaV2.2 [2] was -7.1.

Take `CCCC[C@@H]1NC(=O)[C@H](CC(C)C)NC(=O)[C@H](CCCNC(=N)N)NC(=O)[C@H](CO)NC(=O)[C@@H]2CSSC[C@@H]3NC(=O)[C@H](CO)NC(=O)CNC(=O)[C@H]([C@@H](C)O)NC(=O)[C@H](CSSC[C@H](NC(=O)[C@H](C)NC(=O)[C@H](C)NC(=O)CNC(=O)CN)C(=O)N[C@@H](CCCCN)C(=O)NCC(=O)N[C@@H](CCCCN)C(=O)NCC(=O)N[C@@H](C)C(=O)N[C@@H](CCCCN)C(=O)N2)NC(=O)[C@H](CSSC[C@@H](C(=O)N[C@@H](C)C(=O)N[C@@H](C)C(=O)NCC(=O)NCC(=O)N[C@@H](CC(N)=O)C(=O)NCC(=O)N[C@@H](CC(C)C)C(=O)O)NC(=O)[C@H](CCCCN)NC(=O)CNC(=O)[C@H](CO)NC(=O)[C@H](CCCNC(=N)N)NC3=O)NC(=O)[C@H](CC(=O)O)NC(=O)[C@H](Cc2ccc(O)cc2)NC1=O` [M-9]: at CaV2.2 [1], the midpoint of the response, the EC50, lay at 31.9 nM and the IC50 was 31.9 ± 2.6 nM. Moreover, the LogEC50 on CaV2.2 [2] is on record as -7.5.

The record behind these values is article PMC10952433, “A Chemoenzymatic Approach To Produce a Cyclic Analogue of the Analgesic Drug MVIIA (Ziconotide)” (Angewandte Chemie (International Ed. in English), 2023).
